From patent US4820694A, “Modifications of 3-O-demethylmycinose in macrocin and lactenocin” (priority 1986, dated 1989)
Values after ≈ are worked out from the molar mass of the structure shown. Like-named read-outs stand apart in the source and are kept apart here.

Tests used:
[1] = tested on: Escherichia coli EC14; experiment: standard agar-dilution MIC assay; format: cell-based
Description: (§1) The MIC's in Table III were determined by standard agar-dilution assays. The MIC's in Table IV were obtained using conventional brothdilution microtiter tests.

[2] = tested on: Haemophilus influenzae 76; experiment: standard agar-dilution MIC assay; format: cell-based; conditions: Haemophilus influenzae, 76
Description: as §1

[3] = tested on: Haemophilus influenzae C.L.; experiment: standard agar-dilution MIC assay; format: cell-based; conditions: Haemophilus influenzae
Description: as §1

[4] = tested on: Klebsiella pneumoniae X68; experiment: standard agar-dilution MIC assay; format: cell-based; conditions: Klebsiella pneumoniae, X68
Description: as §1

[5] = tested on: Pseudomonas aeruginosa X239; experiment: standard agar-dilution MIC assay; format: cell-based; conditions: Pseudomonas aeruginosa, X239
Description: as §1

[6] = tested on: Staphylococcus aureus V41; experiment: standard agar-dilution MIC assay; format: cell-based; conditions: Staphylococcus aureus, V41
Description: as §1

[7] = tested on: Staphylococcus aureus X1.1; experiment: standard agar-dilution MIC assay; format: cell-based; conditions: Staphylococcus aureus, X1.1
Description: as §1

[8] = tested on: Staphylococcus aureus X400; experiment: standard agar-dilution MIC assay; format: cell-based; conditions: Staphylococcus aureus, X400
Description: as §1

[9] = tested on: Staphylococcus epidermidis EP12; experiment: standard agar-dilution MIC assay; format: cell-based
Description: as §1

[10] = tested on: Staphylococcus epidermidis EPI1; experiment: standard agar-dilution MIC assay; format: cell-based; conditions: Staphylococcus epidermidis, EPI1
Description: as §1

[11] = tested on: Streptococcus Group D 9960; experiment: standard agar-dilution MIC assay; format: cell-based; conditions: GROUPD9960, read-out: MIC
Description: as §1

[12] = tested on: Streptococcus Group D X66; experiment: standard agar-dilution MIC assay; format: cell-based; conditions: read-out: MIC
Description: as §1

[13] = tested on: Streptococcus pyogenes C203; experiment: standard agar-dilution MIC assay; format: cell-based; conditions: Streptococcus pyogenes, C203
Description: as §1

[14] = tested on: Staphylococcus aureus S13E; experiment: microbe, parasite or virus in culture; format: cell-based; conditions: Staphylococcus aureus, S13E
Description: as §1

[15] = tested on: Streptococcus pneumoniae Park I; experiment: microbe, parasite or virus in culture; format: cell-based; conditions: Streptococcus pneumoniae
Description: as §1

[16] = tested on: Bordetella bronchiseptica; experiment: broth-dilution microtiter MIC test; format: cell-based; conditions: Bordetella bronchiseptica
Description: as §1

[17] = tested on: Mycoplasma gallisepticum 15E; experiment: broth-dilution microtiter MIC test; format: cell-based; conditions: Mycoplasmoides gallisepticum, 15E
Description: as §1

[18] = tested on: Mycoplasma gallisepticum 29C; experiment: broth-dilution microtiter MIC test; format: cell-based; conditions: Mycoplasmoides gallisepticum, 29C
Description: as §1

[19] = tested on: Mycoplasma gallisepticum 36H; experiment: broth-dilution microtiter MIC test; format: cell-based; conditions: Mycoplasmoides gallisepticum, 36H
Description: as §1

[20] = tested on: Mycoplasma hyorhinis 29E; experiment: broth-dilution microtiter MIC test; format: cell-based; conditions: Mycoplasma, 29E
Description: as §1

[21] = tested on: Pasteurella hemolytica 22C; experiment: broth-dilution microtiter MIC test; format: cell-based; conditions: Pasteurella, 22C
Description: as §1

[22] = tested on: Pasteurella hemolytica 23C; experiment: broth-dilution microtiter MIC test; format: cell-based; conditions: Pasteurella, 23C
Description: as §1

[23] = tested on: Pasteurella hemolytica 41D; experiment: broth-dilution microtiter MIC test; format: cell-based; conditions: Pasteurella, 41D
Description: as §1

[24] = tested on: Pasteurella multocida 17E; experiment: broth-dilution microtiter MIC test; format: cell-based; conditions: Pasteurella multocida, 17E
Description: as §1

[25] = tested on: Pasteurella multocida 22A; experiment: broth-dilution microtiter MIC test; format: cell-based; conditions: Pasteurella multocida, 22A
Description: as §1

[26] = tested on: Pasteurella multocida 40G; experiment: broth-dilution microtiter MIC test; format: cell-based; conditions: Pasteurella multocida, 40G
Description: as §1

[27] = tested on: Pasteurella multocida 60A; experiment: broth-dilution microtiter MIC test; format: cell-based; conditions: Pasteurella multocida, 60A
Description: as §1

[28] = tested on: Pasteurella multocida 68C; experiment: broth-dilution microtiter MIC test; format: cell-based; conditions: Pasteurella multocida, 68C
Description: as §1

[29] = tested on: Staphylococcus aureus 19C; experiment: broth-dilution microtiter MIC test; format: cell-based; conditions: Staphylococcus aureus, 19C
Description: as §1

[30] = tested on: Streptococcus sp. 19F; experiment: broth-dilution microtiter MIC test; format: cell-based; conditions: Streptococcus, SP.19F
Description: as §1

[31] = tested on: Pasteurella multocida; experiment: Pasteurella multocida infection in one-day-old chicks; format: in vivo; conditions: subcutaneously, 30 mg/kg × 2, 1 and 4 hours post-challenge
Description: Some of the formula 1 compounds have also shown in vivo antibacterial activity against infections induced by Gram-negative bacteria. Table VI summarizes the results of tests in which illustrative compounds were evaluated against a Pasteurella infection in one-day-old chicks. The compounds were administered by subcutaneous injection at a dosage of 30 mg/kg, 1 and 4 hours post-challenge of the chicks with Pasteurella multocida (0.1 ml of a 10^-4 dilution of a twenty-hour tryptose broth culture of an avian P. multocida given subcutaneously). In these tests, unless indicated otherwise, all non-medicated infected chicks died within 24 hours of Pasteurella challenge.
^a Administered subcutaneously; 30 mg/kg × 2

[32] = tested on: Staphylococcus epidermidis 222; experiment: standard agar-dilution MIC assay; format: cell-based; conditions: Staphylococcus epidermidis, 222; agar-dilution; read-out: MIC
Description: as §1

[33] = tested on: Streptococcus Group D 2041; experiment: standard agar-dilution MIC assay; format: cell-based; conditions: GROUPD2041
Description: as §1

[34] = tested on: Mycoplasma hyopneumoniae S5972; experiment: broth-dilution microtiter MIC test; format: cell-based; conditions: Mesomycoplasma hyopneumoniae, S5972; broth-dilution microtiter; read-out: MIC
Description: as §1

[35] = tested on: Mycoplasma synoviae 40A; experiment: broth-dilution microtiter MIC test; format: cell-based; conditions: Mycoplasmopsis synoviae, 40A; broth-dilution microtiter; read-out: MIC
Description: as §1

[36] = tested on: Streptococcus pyogenes C203; experiment: protection of mice experimentally infected with S. pyogenes C203; format: in vivo; conditions: mice, mg/kg × 2, doses given 1 and 4 hours postinfection, read-out: ED50
Outline: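 Activity is given as ED50, the mg/kg dose (×2) protecting half of the mice infected with S. pyogenes C203. Compound was dosed 1 and 4 h after infection.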

[37] = broth-dilution microtiter, read-out: MIC

CCC1OC(=O)CC(O)C(C)C(OC2OC(C)C(OC3CC(C)(O)C(O)C(C)O3)C(N(C)C)C2OC(C)=O)C(CC=O)CC(C)C(=O)C=CC(C)=CC1COC1OC(C)C(OC(=O)Cc2ccccc2)C(O)C1OC (centres unmarked) [Compound 9, 2'-O-Acetyl-4'"-O-phenylacetyl-macrocin]
MIC [1]: > 128 µg/mL
MIC [2]: 32 µg/mL (≈ 30.1 µM)
MIC [3]: 32 µg/mL (≈ 30.1 µM)
MIC [4]: > 128 µg/mL
MIC [5]: > 128 µg/mL
MIC [6]: 1 µg/mL (≈ 0.941 µM)
MIC [7]: 1 µg/mL (≈ 0.941 µM)
MIC [8]: 2 µg/mL (≈ 1.88 µM)
MIC [9]: 2 µg/mL (≈ 1.88 µM)
MIC [10]: 2 µg/mL (≈ 1.88 µM)
MIC [11]: 0.5 µg/mL (≈ 0.471 µM)
MIC [12]: 1 µg/mL (≈ 0.941 µM)
MIC [13]: 0.5 µg/mL (≈ 0.471 µM)
MIC [14]: 2 µg/mL (≈ 1.88 µM)
MIC [15]: 0.25 µg/mL (≈ 0.235 µM)
MIC [16]: > 50 µg/mL
MIC [17]: 12.5 µg/mL (≈ 11.8 µM)
MIC [18]: 0.78 µg/mL (≈ 0.734 µM)
MIC [19]: 12.5 µg/mL (≈ 11.8 µM)
MIC [20]: 1.56 µg/mL (≈ 1.47 µM)
MIC [21]: > 50 µg/mL
MIC [22]: > 50 µg/mL
MIC [23]: > 50 µg/mL
MIC [24]: > 50 µg/mL
MIC [25]: > 50 µg/mL
MIC [26]: > 50 µg/mL
MIC [27]: > 50 µg/mL
MIC [28]: > 50 µg/mL
MIC [29]: 3.12 µg/mL (≈ 2.94 µM)
MIC [30]: 1.56 µg/mL (≈ 1.47 µM)
Number of Deaths/Number Treated [31]: 10/10

CCC1OC(=O)CC(O)C(C)C(OC2OC(C)C(OC3CC(C)(O)C(O)C(C)O3)C(N(C)C)C2OC(C)=O)C(CC=O)CC(C)C(=O)C=CC(C)=CC1COC1OC(C)C2OC(=O)OC2C1OC (centres unmarked) [Compound 48]
MIC ([1]; agar-dilution, read-out: MIC): > 128 µg/mL
MIC ([2]; agar-dilution, Ampicillin-resistant strain, read-out: MIC): 16 µg/mL (≈ 16.5 µM)
MIC [3]: 32 µg/mL (≈ 33 µM)
MIC ([4]; agar-dilution, read-out: MIC): > 128 µg/mL
MIC ([5]; agar-dilution, read-out: MIC): > 128 µg/mL
MIC [6]: 1 µg/mL (≈ 1.03 µM)
MIC [7]: 1 µg/mL (≈ 1.03 µM)
MIC [8]: 2 µg/mL (≈ 2.06 µM)
MIC [32]: 0.5 µg/mL (≈ 0.515 µM)
MIC [10]: 1 µg/mL (≈ 1.03 µM)
MIC [33]: 2 µg/mL (≈ 2.06 µM)
MIC [12]: 2 µg/mL (≈ 2.06 µM)
MIC ([13]; agar-dilution, read-out: MIC): 0.5 µg/mL (≈ 0.515 µM)
MIC [14]: 1 µg/mL (≈ 1.03 µM)
MIC ([15]; agar-dilution, read-out: MIC): 0.12 µg/mL (≈ 0.124 µM)
MIC [16, 37]: > 50 µg/mL
MIC [17, 37]: 12.5 µg/mL (≈ 12.9 µM)
MIC [18]: 0.195 µg/mL (≈ 0.201 µM)
MIC [19]: 50 µg/mL (≈ 51.5 µM)
MIC [34]: 0.097 µg/mL (≈ 0.1 µM)
MIC [20, 37]: 1.56 µg/mL (≈ 1.61 µM)
MIC [35]: 0.097 µg/mL (≈ 0.1 µM)
MIC [21, 37]: > 50 µg/mL
MIC [22]: 50 µg/mL (≈ 51.5 µM)
MIC [23]: 50 µg/mL (≈ 51.5 µM)
MIC ([24]; broth-dilution microtiter, Bovine isolate, read-out: MIC): 12.5 µg/mL (≈ 12.9 µM)
MIC [25]: 50 µg/mL (≈ 51.5 µM)
MIC [26, 37]: 25 µg/mL (≈ 25.8 µM)
MIC ([27]; broth-dilution microtiter, Avian isolate, read-out: MIC): 25 µg/mL (≈ 25.8 µM)
MIC [28, 37]: 12.5 µg/mL (≈ 12.9 µM)
MIC [29, 37]: 1.56 µg/mL (≈ 1.61 µM)
MIC [30]: 0.39 µg/mL (≈ 0.402 µM)
ED50 ([36]; C203, Oral): 28 mg/kg
ED50 ([36]; C203, sc, Subcutaneous): 1.53 mg/kg
